Patent publication US10759783B2, “Biaryl inhibitors of Bruton'S tyrosine kinase” (BIOGEN MA INC., priority 2013, dated 2020)

Columns and labels:
[1] = target: T1, BTK enzyme (Homo sapiens, UniProt Q06187); assay: In vitro BTK kinase assay: BTK-POLYGAT-LS assay; type: biochemical; settings: ATP 10 μM, read-out: IC50 (10uMATP)
T1 construct: purchased Upstate 14-552
Outline: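 Human BTK activity was measured with final 10 μM ATP and 100 nM polyGAT substrate in pH 7.5 Tris buffer with 10 mM MgCl2, DTT, Triton X-100 and casein.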

[2] = target: BTK (phospho-BTK) in human whole blood (Homo sapiens, UniProt Q06187); assay: In vitro PD assay in human whole blood (pBTK assay)
Chain of BTK (phospho-BTK) in human whole blood (Q06187 whole entry): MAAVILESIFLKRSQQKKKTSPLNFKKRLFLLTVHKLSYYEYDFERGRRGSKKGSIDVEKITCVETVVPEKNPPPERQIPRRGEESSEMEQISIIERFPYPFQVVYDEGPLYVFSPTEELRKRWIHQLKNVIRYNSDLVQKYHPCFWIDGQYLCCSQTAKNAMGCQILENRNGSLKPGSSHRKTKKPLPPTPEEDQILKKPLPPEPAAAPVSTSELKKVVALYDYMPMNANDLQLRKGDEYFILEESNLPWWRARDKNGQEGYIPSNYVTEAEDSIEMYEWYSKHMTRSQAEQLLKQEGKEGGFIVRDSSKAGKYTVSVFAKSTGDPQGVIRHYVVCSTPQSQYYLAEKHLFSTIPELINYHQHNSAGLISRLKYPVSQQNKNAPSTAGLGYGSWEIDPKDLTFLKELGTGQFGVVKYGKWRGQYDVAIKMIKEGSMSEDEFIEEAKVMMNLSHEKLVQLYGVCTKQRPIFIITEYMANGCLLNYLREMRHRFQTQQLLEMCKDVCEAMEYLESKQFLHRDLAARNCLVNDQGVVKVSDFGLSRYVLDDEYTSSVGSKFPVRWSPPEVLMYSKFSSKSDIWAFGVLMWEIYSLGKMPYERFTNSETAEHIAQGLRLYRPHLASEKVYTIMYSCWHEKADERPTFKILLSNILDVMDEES

T1 sequence (Q06187 whole entry): as above

Row | Structure (SMILES) | IC50 [1] | IC50 [2]
1 | Cn1cc(Nc2nccc(-c3ccc4c(c3)CCCC4NC(=O)c3cnc(C(C)(C)C)s3)n2)cn1 (stereo not drawn) [Example I-91, 2-(tert-butyl)-N-(6-(2-((1-methyl-1H-pyrazol-4-yl)amino)pyrimidin-4-yl)-1,2,3,4-tetrahydronaphthalen-1-yl)thiazole-5-carboxamide] | < 10 nM | 1500 to 10000 nM
2 | Cc1cc(-c2cc(Nc3ccc4c(n3)CCNC4)ncn2)ccc1CNC(=O)c1cnc(C(C)(C)C)s1 [Example I-266, 2-tert-butyl-N-[[2-methyl-4-[6-(5,6,7,8-tetrahydro-1,6-naphthyridin-2-ylamino)pyrimidin-4-yl]phenyl]methyl]thiazole-5-carboxamide] | < 10 nM | < 500 nM
3 | Cc1cc(-c2cc(Nc3cnn(C)n3)ncn2)ccc1CNC(=O)c1cnc(C(C)(C)C)s1 [Example I-67, 2-(tert-butyl)-N-(2-methyl-4-(6-((2-methyl-2H-1,2,3-triazol-4-yl)amino)pyrimidin-4-yl)benzyl)thiazole-5-carboxamide] | < 10 nM | 500 to 1500 nM
4 | Cc1cc(-c2ccnc(Nc3cnn(C4CCN(C)CC4)c3)n2)ccc1CNC(=O)c1cc(C(C)(C)C)on1 [Example I-196, 5-(tert-butyl)-N-(2-methyl-4-(2-((1-(1-methylpiperidin-4-yl)-1H-pyrazol-4-yl)amino)pyrimidin-4-yl)benzyl)isoxazole-3-carboxamide] | < 10 nM | < 500 nM
5 | CC(C)(C)C1CCN(C(=O)NCc2ccc(-c3ccnc(Nc4cnn5c4CCC5)n3)cc2CCO)C1 (stereo not drawn) [Example I-324, 3-tert-butyl-N-[[4-[2-(5,6-dihydro-4H-pyrrolo[1,2-b]pyrazol-3-ylamino)pyrimidin-4-yl]-2-(2-hydroxyethyl)phenyl]methyl]pyrrolidine-1-carboxamide] | < 10 nM | < 500 nM
6 | Cn1cc(Nc2nccc(-c3ccc(CNC(=O)c4cnn(C(C)(C)C)c4)c(C(F)(F)F)c3)n2)cn1 [Example I-202, 1-(tert-butyl)-N-(4-(2-((1-methyl-1H-pyrazol-4-yl)amino)pyrimidin-4-yl)-2-(trifluoromethyl)benzyl)-1H-pyrazole-4-carboxamide] | < 10 nM | < 500 nM
7 | CC(C)OC1CN(C(=O)NC2CNCCc3cc(-c4ccnc(Nc5cnn(C)c5)n4)ccc32)C1 (stereo not drawn) [Example I-352, 3-isopropoxy-N-[7-[2-[(1-methylpyrazol-4-yl)amino]pyrimidin-4-yl]-2,3,4,5-tetrahydro-1H-3-benzazepin-1-yl]azetidine-1-carboxamide] | 10 to 99 nM | < 500 nM
8 | Cn1cc(Nc2nccc(-c3ccc(CNC(=O)N4CC(OC(C)(C)C)C4)c(CCO)c3)n2)cn1 [Example I-190, 3-(tert-butoxy)-N-(2-(2-hydroxyethyl)-4-(2-((1-methyl-1H-pyrazol-4-yl)amino)pyrimidin-4-yl)benzyl)azetidine-1-carboxamide] | < 10 nM | < 500 nM
9 | CN1CC(n2cc(Nc3nccc(-c4ccc(CNC(=O)N5CCC(C(C)(C)C)C5)c(C(F)(F)F)c4)n3)cn2)C1 (stereo not drawn) [Example I-311, 3-tert-butyl-N-[[4-[2-[[1-(1-methylazetidin-3-yl)pyrazol-4-yl]amino]pyrimidin-4-yl]-2-(trifluoromethyl)phenyl]methyl]pyrrolidine-1-carboxamide] | < 10 nM | < 500 nM
10 | CC(C)(C)OC1CN(C(=O)NC2CCCCc3cc(-c4ccnc(Nc5cnn([C@H]6CCOC6)c5)n4)ccc32)C1 (stereo partly drawn) [Example I-334, 3-tert-butoxy-N-[2-[2-[[1-[(3S)-tetrahydrofuran-3-yl]pyrazol-4-yl]amino]pyrimidin-4-yl]-6,7,8,9-tetrahydro-5H-benzo[7]annulen-5-yl]azetidine-1-carboxamide] | < 10 nM | < 500 nM
11 | Cc1cc(-c2ccnc(Nc3cc4n(n3)CCNC4)n2)ccc1CNC(=O)c1cnc(C(C)(C)C)s1 [Example I-54, 2-(tert-butyl)-N-(2-methyl-4-(2-((4,5,6,7-tetrahydropyrazolo[1,5-a]pyrazin-2-yl)amino)pyrimidin-4-yl)benzyl)thiazole-5-carboxamide] | < 10 nM | 500 to 1500 nM
12 | CN1CCn2nc(Nc3cc(-c4ccc(CNC(=O)c5cnn(C(C)(C)C)c5)c(Cl)c4)ncn3)cc2C1 [Example I-240, 1-(tert-butyl)-N-(2-chloro-4-(6-((5-methyl-4,5,6,7-tetrahydropyrazolo[1,5-a]-pyrazin-2-yl)amino)pyrimidin-4-yl)benzyl)-1H-pyrazole-4-carboxamide] | < 10 nM | < 500 nM
13 | Cn1cc(Nc2nccc(-c3ccc(CNC(=O)c4cc5c(s4)CCOC5)c(C(F)(F)F)c3)n2)cn1 [Example I-115, N-(4-(2-((1-methyl-1H-pyrazol-4-yl)amino)pyrimidin-4-yl)-2-(trifluoromethyl)benzyl)-6,7-dihydro-4H-thieno[3,2-c]pyran-2-carboxamide] | < 10 nM | 500 to 1500 nM
14 | CC(C)(C)CN1CCN(Cc2ccc(-c3ccnc(Nc4cnn(CCO)c4)n3)cc2C(F)(F)F)C(=O)C1 [Example I-350] | < 10 nM | < 500 nM
15 | Cc1cc(-c2ccnc(Nc3cnn(C)c3)n2)ccc1CNC(=O)c1cnc(C(F)(F)F)s1 [Example I-4, N-(2-methyl-4-(2-((1-methyl-1H-pyrazol-4-yl)amino)pyrimidin-4-yl)benzyl)-2-(trifluoromethyl)thiazole-5-carboxamide] | < 10 nM | 1500 to 10000 nM
16 | CC(C)OC1CN(C(=O)NC2CCN(CC(F)(F)F)Cc3cc(-c4ccnc(Nc5cnn(C)c5)n4)ccc32)C1 (stereo not drawn) [Example I-187, 3-isopropoxy-N-(8-(2-((1-methyl-1H-pyrazol-4-yl)amino)pyrimidin-4-yl)-2-(2,2,2-trifluoroethyl)-2,3,4,5-tetrahydro-1H-benzo[c]azepin-5-yl)azetidine-1-carboxamide] | < 10 nM | < 500 nM
17 | CN1CC[C@H](n2cc(Nc3nccc(-c4ccc(CNC(=O)N5CCC(C(C)(C)C)C5)c(C(F)(F)F)c4)n3)cn2)C1 (stereo partly drawn) [Example I-207, 3-(tert-butyl)-N-(4-(2-((1-((S)-1-methylpyrrolidin-3-yl)-1H-pyrazol-4-yl)amino)pyrimidin-4-yl)-2-(trifluoromethyl)benzyl)pyrrolidine-1-carboxamide] | < 10 nM | < 500 nM
18 | CCN1CCn2nc(Nc3cc(-c4ccc(CNC(=O)c5cnn(C(C)(C)C)c5)c(C)c4)ncn3)cc2C1 [Example I-232, 1-(tert-butyl)-N-(4-(6-((5-ethyl-4,5,6,7-tetrahydropyrazolo[1,5-a]pyrazin-2-yl)amino)pyrimidin-4-yl)-2-methylbenzyl)-1H-pyrazole-4-carboxamide] | < 10 nM | < 500 nM
19 | Cn1cc(Nc2nccc(-c3ccc(CNC(=O)N4CC(OC(C)(C)C)C4)c(C(F)(F)F)c3)n2)cn1 [Example I-198, 3-(tert-butoxy)-N-(4-(2-((1-methyl-1H-pyrazol-4-yl)amino)pyrimidin-4-yl)-2-(trifluoromethyl)benzyl)azetidine-1-carboxamide] | < 10 nM | < 500 nM
20 | Cc1cc(-c2ccnc(Nc3cnn(C)c3)n2)ccc1CNC(=O)N1CC[C@@H](C(C)(C)C)C1 [Example I-254] | < 10 nM | < 500 nM
21 | Cc1cc(-c2cc(Nc3cc4n(n3)CC(C)N(C)C4)ncn2)ccc1CNC(=O)c1cnc(C(C)(C)C)s1 (stereo not drawn) [Example I-279, 2-tert-butyl-N-[[4-[6-[(5,6-dimethyl-6,7-dihydro-4H-pyrazolo[1,5-a]pyrazin-2-yl)amino]pyrimidin-4-yl]-2-methyl-phenyl]methyl]thiazole-5-carboxamide] | < 10 nM | < 500 nM
22 | CCn1cc(Nc2nccc(-c3ccc4c(c3)CCCCC4NC(=O)N3CC(OC(C)C)C3)n2)cn1 (stereo not drawn) [Example I-166, N-(2-(2-((1-ethyl-1H-pyrazol-4-yl)amino)pyrimidin-4-yl)-6,7,8,9-tetrahydro-5H-benzo[7]annulen-5-yl)-3-isopropoxyazetidine-1-carboxamide] | < 10 nM | < 500 nM
23 | Cc1cc(-c2cc(Nc3cc4n(n3)CCCN(C)C4)ncn2)ccc1CNC(=O)c1cnn(C(C)(C)C)c1 [Example I-236, 1-(tert-butyl)-N-(2-methyl-4-(6-((5-methyl-5,6,7,8-tetrahydro-4H-pyrazolo[1,5-a][1,4]diazepin-2-yl)amino)pyrimidin-4-yl)benzyl)-1H-pyrazole-4-carboxamide] | < 10 nM | < 500 nM
24 | Cc1cc(-c2cc(Nc3cc4c(cn3)CN(CCO)CC4)ncn2)ccc1CNC(=O)c1cnc(C(C)(C)C)s1 [Example I-268, 2-tert-butyl-N-[[4-[6-[[7-(2-hydroxyethyl)-6,8-dihydro-5H-2,7-naphthyridin-3-yl]amino]pyrimidin-4-yl]-2-methyl-phenyl]methyl]thiazole-5-carboxamide] | < 10 nM | < 500 nM
25 | Cn1cc(Nc2nccc(-c3ccc4c(c3)NCCC4NC(=O)c3cnc(C(C)(C)C)s3)n2)cn1 (stereo not drawn) [Example I-99, 2-(tert-butyl)-N-(7-(2-((1-methyl-1H-pyrazol-4-yl)amino)pyrimidin-4-yl)-1,2,3,4-tetrahydroquinolin-4-yl)thiazole-5-carboxamide] | < 10 nM | 1500 to 10000 nM
26 | CC(C)OC1CN(C(=O)NCc2ccc(-c3ccnc(Nc4cnn(C5CN(C)C5)c4)n3)cc2Cl)C1 [Example I-353, N-[[2-chloro-4-[2-[[1-(1-methylazetidin-3-yl)pyrazol-4-yl]amino]pyrimidin-4-yl]phenyl]methyl]-3-isopropoxy-azetidine-1-carboxamide] | < 10 nM | < 500 nM
27 | Cc1cc(-c2ccnc(Nc3cnn(C4CC4)c3)n2)ccc1CNC(=O)N1CCC(C(C)(C)C)C1 (stereo not drawn) [Example I-308, 3-tert-butyl-N-[[4-[2-[(1-cyclopropylpyrazol-4-yl)amino]pyrimidin-4-yl]-2-methyl-phenyl]methyl]pyrrolidine-1-carboxamide] | < 10 nM | < 500 nM
